Results from patent publication US20260199350A1, “FLAVONES, QUINOLINONES, QUINAZOLINONES, AND AURONES, AND USES IN CK2-MEDIATED DISEASES” (Salk Institute for Biological Studies, priority 2022, published 2026).
Like-named read-outs stand apart in the source and are kept apart here. Each block holds one compound with its values, some of them ahead of it.

Legend:
CK2A2 = target: T1, CK2A2 (Homo sapiens, UniProt P19784); test: Radiometric kinase assay (Eurofins), CK2A2; assay type: biochemical; details: read-out: CK2A2 RAD IC50
T1 construct: purchased Eurofins
Source text: (§1) • ^1Radiometric kinase assay from Eurofins. Performed in astrocytes with a Promega Lumit IL-6 kit.

CK2A1 = target: T2, CK2A1 (Homo sapiens, UniProt P68400); test: Radiometric kinase assay (Eurofins), CK2A1; assay type: biochemical; details: read-out: CK2A1 RAD IC50
T2 construct: purchased Eurofins
Source text: FIGS. 4A-4F characterize flavones for in vitro and in-cell CK2 inhibition. […] Representative of two independent experiments. […] Nonlinear fit was used to calculate IC50. […] Nonlinear fit was used to calculate IC50. […] Nonlinear fit was used to calculate IC50. […] Normalized to DMSO, data are representative of three independent experiments.
as §1

IL-6 secretion = IL-6 secretion assay in astrocytes (Promega Lumit IL-6 kit); assay type: cell-based, human; details: Homo sapiens, Astrocyte; astrocytes stimulated with IL1-β, after 5 hours; read-out: IC50, secretion of IL-6
Experimental: IL-6 secretion assay. HCAs were plated at 20,000 cells per well in white clear bottom 96-well plates. Two to three days later, media was removed and replaced with media containing 10 ng/mL IL1B and compound dilution series. Five hours later, plates were processed using the Lumit IL-6 Assay Kit (Promega W6030) according to the manufacturer's instructions.
• ^1Radiometric kinase assay from Eurofins. Performed in astrocytes with a Promega Lumit IL-6 kit. A series of halogenated flavones was generated and assayed (Table 3).

T2 sequence (P68400 whole entry): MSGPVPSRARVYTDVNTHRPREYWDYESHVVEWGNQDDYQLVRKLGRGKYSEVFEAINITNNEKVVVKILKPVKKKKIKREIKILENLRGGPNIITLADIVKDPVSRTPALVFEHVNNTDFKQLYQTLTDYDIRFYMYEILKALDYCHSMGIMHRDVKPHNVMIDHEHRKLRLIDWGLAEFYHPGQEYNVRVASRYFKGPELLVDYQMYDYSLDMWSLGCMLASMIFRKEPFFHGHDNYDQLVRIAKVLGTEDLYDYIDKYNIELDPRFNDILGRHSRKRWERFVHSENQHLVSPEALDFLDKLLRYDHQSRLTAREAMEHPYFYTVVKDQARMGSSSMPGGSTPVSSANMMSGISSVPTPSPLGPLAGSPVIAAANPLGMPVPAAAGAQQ
T1 sequence (P19784 whole entry): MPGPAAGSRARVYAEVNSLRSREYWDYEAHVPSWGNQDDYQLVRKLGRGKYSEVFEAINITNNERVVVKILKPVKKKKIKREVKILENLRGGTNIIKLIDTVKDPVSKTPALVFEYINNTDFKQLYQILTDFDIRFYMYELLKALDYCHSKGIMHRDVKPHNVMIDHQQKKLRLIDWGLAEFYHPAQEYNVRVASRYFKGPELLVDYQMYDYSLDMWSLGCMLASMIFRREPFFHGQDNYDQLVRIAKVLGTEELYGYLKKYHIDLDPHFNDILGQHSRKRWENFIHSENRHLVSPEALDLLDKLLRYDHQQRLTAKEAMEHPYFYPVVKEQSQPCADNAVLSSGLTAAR

SMILES: O=C1/C(=C/c2ccc(O)cn2)Oc2c(Br)cc(Br)cc21 [Compound 1143A]
IC50 (CK2A2; Table 12): > 5000 nM
IC50 (CK2A1; Table 12): > 5000 nM

SMILES: O=C(O)c1ccc2c(c1)nc(Nc1cccc(Cl)c1)c1ccncc12 [CX-4945, silmitasertib, reference compound]
IC50 (IL-6 secretion): 315 nM

SMILES: COc1c(Br)cc2c(c1Br)O/C(=C\c1ccc(O)c(C3CC3)c1)C2=O [Compound 1134A]
IC50 (CK2A2; Table 12): > 5000 nM
IC50 (CK2A1; Table 12): > 5000 nM

SMILES: O=c1[nH]c(-c2cc(Br)c(O)cn2)nc2c(Br)cc(Br)cc12 [Compound 1005A]
IC50 (CK2A2; Table 9): 53 nM
IC50 (CK2A1; Table 9): 94 nM

SMILES: O=c1[nH]c(-c2ccc(O)c(Cl)n2)nc2c(Br)cccc12 [Compound 964A]
IC50 (CK2A2; Table 9): 137 nM
IC50 (CK2A1; Table 9): 155 nM

SMILES: COc1ccc2c(c1Br)O/C(=C\c1ccc(O)c(C3CC3)c1)C2=O [Compound 1135B]
IC50 (CK2A2; Table 12): > 5000 nM
IC50 (CK2A1; Table 12): > 5000 nM

SMILES: COc1cc(-c2cc(=O)c3cc(Br)c(OC)cc3o2)ncc1O [Compound 1063B]
IC50 (CK2A2; Table 5): 445 nM
IC50 (CK2A1; Table 5): 203 nM

SMILES: COc1nc(-c2cc(=O)c3cc(Br)c(OC)c(Br)c3o2)ccc1O [Compound 1041A]
IC50 (CK2A2; Table 5): 1740 nM
IC50 (CK2A1; Table 5): 1890 nM

SMILES: O=c1[nH]c(-c2cc(Br)c(O)cn2)nc2c(Br)cccc12 [Compound 1007A]
IC50 (CK2A2; Table 9): 327 nM
IC50 (CK2A1; Table 9): 380 nM

SMILES: COc1c(Br)cc2c(=O)cc(-c3ccc(O)c(C4CC4)c3)oc2c1Br [Compound 1140A]
IC50 (CK2A2; Table 5): > 5000 nM
IC50 (CK2A1; Table 5): > 5000 nM

SMILES: COc1nc(-c2cc(=O)c3cc(Br)ccc3o2)ccc1O [Compound 1064A]
IC50 (CK2A2; Table 5): 167 nM
IC50 (CK2A1; Table 5): 124 nM

SMILES: COc1cc(-c2cc(=O)c3cc(Br)c(OC)c(Br)c3o2)ncc1O [Compound 1040A]
IC50 (CK2A2; Table 5): 29 nM
IC50 (CK2A1; Table 5): 52 nM

SMILES: O=c1cc(-c2ccc(O)c(C3CC3)c2)oc2c(Br)cccc12 [Compound 1141A]
IC50 (CK2A2; Table 5): 4250 nM
IC50 (CK2A1; Table 5): > 5000 nM

Other lines, results leading:

IC50 (CK2A2; Table 12): 403 nM
IC50 (CK2A1; Table 12): 45 nM
SMILES: COc1cc(/C=C2\Oc3c(Br)cc(Br)cc3C2=O)ncc1O [Compound 1163A]

IC50 (CK2A2; Table 8, quinazolinones): 242 nM
IC50 (CK2A1; Table 8, quinazolinones): 95 nM
SMILES: O=c1[nH]c(-c2ccc(O)c(Br)c2)nc2c(Br)nc(Br)cc12 [JKT.880B]

IC50 (CK2A2; Table 4): 55 nM
IC50 (CK2A1; Table 4): 53 nM
SMILES: O=c1cc(-c2cc(Br)c(O)cn2)oc2c(Br)cccc12 [JKT.980A]

IC50 (CK2A2; Table 12): 206 nM
IC50 (CK2A1; Table 12): 180 nM
SMILES: C#Cc1cc(/C=C2\Oc3c(ccc(OC)c3Br)C2=O)ccc1O [Compound 1231A]

IC50 (CK2A2; Table 12): 141 nM
IC50 (CK2A1; Table 12): 172 nM
SMILES: COc1cc(/C=C2\Oc3c(Br)cccc3C2=O)ncc1O [Compound 1236B]

IC50 (CK2A2; Table 8, quinazolinones): > 5000 nM
IC50 (CK2A1; Table 8, quinazolinones): 4590 nM
SMILES: Cn1c(-c2ccc(O)c(Br)c2)nc2c(Br)cccc2c1=O [JKT.866A]

IC50 (CK2A2; Table 12): 77 nM
IC50 (CK2A1; Table 12): 177 nM
SMILES: C#Cc1cc(/C=C2\Oc3c(Br)cc(Br)cc3C2=O)ccc1O [Compound 1224A]

IC50 (CK2A2; Table 12): 49 nM
IC50 (CK2A1; Table 12): 151 nM
SMILES: C#Cc1cc(/C=C2\Oc3c(cc(Br)c(OC)c3Br)C2=O)ccc1O [Compound 1229A]

IC50 (CK2A2; Table 12): 60 nM
IC50 (CK2A1; Table 12): 703 nM
SMILES: O=C(O)c1ccc(/C=C2\Oc3c(Br)cccc3C2=O)cc1 [Compound 1210A]

IC50 (CK2A2; Table 8, quinazolinones): 33 nM
IC50 (CK2A1; Table 8, quinazolinones): 26 nM
SMILES: COc1nc(-c2nc3c(Br)cccc3c(=O)[nH]2)ccc1O [JKT.975A]

IC50 (CK2A2; Table 12): 46 nM
IC50 (CK2A1; Table 12): 184 nM
SMILES: COc1ccc2c(c1Br)O/C(=C\c1cc(Br)c(O)cn1)C2=O [Compound 1190B]

IC50 (CK2A2; Table 12): 590 nM
IC50 (CK2A1; Table 12): 1020 nM
SMILES: COc1nc(/C=C2\Oc3c(cc(Br)c(OC)c3Br)C2=O)ccc1O [Compound 1159A]

IC50 (CK2A2; Table 12): 1260 nM
IC50 (CK2A1; Table 12): > 5000 nM
SMILES: C#Cc1cc(-c2cc(=O)c3cc(Br)c(OC)c(Br)c3o2)ccc1O [Compound 1212A]

IC50 (CK2A2; Table 12): 30 nM
IC50 (CK2A1; Table 12): 60 nM
SMILES: O=C1/C(=C/c2cc(Br)c(O)cn2)Oc2c(Br)cc(Br)cc21 [Compound 1173A]

IC50 (CK2A2; Table 12): 57 nM
IC50 (CK2A1; Table 12): 67 nM
SMILES: O=C1/C(=C/c2cc(Br)c(O)cn2)Oc2c(Br)cccc21 [Compound 1237A]

IC50 (CK2A2; Table 12): > 5000 nM
IC50 (CK2A1; Table 12): 4450 nM
SMILES: O=C1/C(=C/c2ccc(O)c(C3CC3)c2)Oc2c(Br)cccc21 [Compound 1220A]

IC50 (CK2A2; Table 6, quinolinones): 123 nM
IC50 (CK2A1; Table 6, quinolinones): 128 nM
SMILES: O=c1cc(-c2ccc(O)c(Br)c2)[nH]c2c(Br)cc(Br)cc12 [JKT.944A]

IC50 (CK2A2; Table 8, quinazolinones): 33 nM
IC50 (CK2A1; Table 8, quinazolinones): 27 nM
SMILES: COc1nc(-c2nc3c(Br)cc(Br)cc3c(=O)[nH]2)ccc1O [JKT.968C]

IC50 (CK2A2; Table 8, quinazolinones): 900 nM
IC50 (CK2A1; Table 8, quinazolinones): 677 nM
SMILES: COc1nc(-c2nc3c(Br)cc(Br)cc3c(=O)n2C)ccc1O [JKT.983A]
